In patent US20180244611A1, “Modulators of the Cystic Fibrosis Transmembrane Conductance Regulator Protein and Methods of Use” (AbbVie S.à.r.l., priority 2017, published 2018):

What was measured:
F508delCFTR [1] = biological target: T1, F508delCFTR (Homo sapiens, UniProt P13569, DEL508-508); assay: Cell Surface Expression-Horse Radish Peroxidase (CSE-HRP) assay, test compound without co-corrector; assay type: cell-based; details: for Emax: maximum at any tested concentration, normalized to positive control, without co-corrector; for EC50: test compound without co-corrector;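 for Emax: percent of on-plate 2 µM positive control corrector response over DMSO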
T1 construct: expressed in transfected cells; host or cells: CFBE41o- human lung-derived epithelial cells (CFBE41o-F508delCFTR-HRP), doxycycline-inducible
T1 sequence (P13569 with tags, fused parts or gaps DEL508-508): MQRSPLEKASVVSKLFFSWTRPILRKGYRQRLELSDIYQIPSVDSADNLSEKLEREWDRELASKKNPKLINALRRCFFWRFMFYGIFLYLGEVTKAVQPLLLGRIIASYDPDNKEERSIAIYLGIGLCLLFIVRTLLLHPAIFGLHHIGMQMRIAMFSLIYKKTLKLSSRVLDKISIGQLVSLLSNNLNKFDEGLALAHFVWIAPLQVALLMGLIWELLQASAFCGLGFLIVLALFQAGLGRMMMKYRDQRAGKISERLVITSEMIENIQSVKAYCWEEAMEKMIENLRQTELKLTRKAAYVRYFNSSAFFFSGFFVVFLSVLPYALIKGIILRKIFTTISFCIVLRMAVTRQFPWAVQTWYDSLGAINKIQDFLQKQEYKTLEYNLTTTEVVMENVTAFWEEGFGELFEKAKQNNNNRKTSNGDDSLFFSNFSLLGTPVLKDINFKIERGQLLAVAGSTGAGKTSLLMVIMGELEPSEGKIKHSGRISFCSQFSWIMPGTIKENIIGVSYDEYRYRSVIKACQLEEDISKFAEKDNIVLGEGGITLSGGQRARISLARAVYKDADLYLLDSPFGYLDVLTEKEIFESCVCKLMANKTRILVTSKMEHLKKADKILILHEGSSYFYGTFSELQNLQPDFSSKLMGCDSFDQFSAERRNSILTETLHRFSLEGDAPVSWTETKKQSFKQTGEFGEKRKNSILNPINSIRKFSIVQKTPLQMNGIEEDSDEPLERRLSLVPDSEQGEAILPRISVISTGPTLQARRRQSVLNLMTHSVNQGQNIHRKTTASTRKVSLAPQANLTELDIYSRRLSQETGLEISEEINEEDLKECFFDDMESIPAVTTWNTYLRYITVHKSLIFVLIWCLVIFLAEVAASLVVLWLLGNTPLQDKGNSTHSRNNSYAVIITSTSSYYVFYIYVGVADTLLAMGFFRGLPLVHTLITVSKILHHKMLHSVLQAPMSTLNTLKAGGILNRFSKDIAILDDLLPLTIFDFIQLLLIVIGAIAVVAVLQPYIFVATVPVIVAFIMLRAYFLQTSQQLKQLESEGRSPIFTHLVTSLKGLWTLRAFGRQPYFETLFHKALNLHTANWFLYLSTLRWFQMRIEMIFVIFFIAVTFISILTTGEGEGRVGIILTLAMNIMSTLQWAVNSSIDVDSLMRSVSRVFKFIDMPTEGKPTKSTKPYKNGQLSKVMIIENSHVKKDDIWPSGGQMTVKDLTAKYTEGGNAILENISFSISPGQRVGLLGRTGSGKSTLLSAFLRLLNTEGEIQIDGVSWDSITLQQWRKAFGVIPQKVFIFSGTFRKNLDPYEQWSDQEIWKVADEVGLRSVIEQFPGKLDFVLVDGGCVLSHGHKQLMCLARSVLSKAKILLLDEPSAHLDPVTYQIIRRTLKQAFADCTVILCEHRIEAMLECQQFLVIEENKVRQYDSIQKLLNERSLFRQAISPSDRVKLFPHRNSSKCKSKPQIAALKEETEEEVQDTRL
Method in brief: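 CFBE41o- cells expressing F508delCFTR with HRP in the fourth exofacial loop, induced with 0.5 μg/mL doxycycline for 72 h at 37° C, then exposed to compound alone for 18-24 h at 33° C, 8-point 3-fold series from 20 μM. Surface HRP read by luminol luminescence, normalized to positive corrector control versus DMSO; EC50 from variable-slope sigmoidal fit of three replicate plates.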

F508delCFTR [2] = biological target: T1, F508delCFTR; assay: Cell Surface Expression-Horse Radish Peroxidase (CSE-HRP) assay, test compound with co-corrector; assay type: cell-based; details: with 2 μM co-corrector; for Maximum % activity (with co-corrector): maximum at any tested concentration, normalized to positive control;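 for Maximum % activity (with co-corrector): percent of 2 µM positive control corrector over DMSO; co-corrector is that same compound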
Method in brief: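 CFBE41o- cells expressing F508delCFTR with HRP in the fourth exofacial loop, induced with 0.5 μg/mL doxycycline for 72 h, then treated 18-24 h at 33° C. with compound (8 points, top 20 μM, 3-fold) plus 2 μM co-corrector. Surface HRP read by luminol luminescence; activity normalised to positive control, EC50 from variable-slope sigmoidal fit.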

Row | Compound | Emax (F508delCFTR [1]) | EC50 (F508delCFTR [1]) | Maximum % activity (with co-corrector) (F508delCFTR [2]) | EC50 (F508delCFTR [2])
1 | CC1(C(=O)NS(=O)(=O)c2cccc3ccccc23)CCc2ccc(OC(F)(F)F)cc21 (centres unmarked) [II-49] | ≥ 150% | 3 to 10 µM | +++ (≥350) | < 3 µM
2 | O=C(NS(=O)(=O)c1cccc2ccccc12)C1CCCc2c(O)ccc(Br)c21 (centres unmarked) [II-50] | < 50% | 3 to 10 µM | ++ (≥150 and <350) | 3 to 10 µM
3 | COc1ccc2c(c1OC)CCCC2C(=O)NS(=O)(=O)c1cccc2ccccc12 (centres unmarked) [II-51] | 50 to 150% | 3 to 10 µM | +++ (≥350) | 3 to 10 µM
4 | O=C(NS(=O)(=O)c1cccc2ccccc12)C1CCCc2c1ccc1c2OCCO1 (centres unmarked) [II-52] | 50 to 150% | 3 to 10 µM | +++ (≥350) | 3 to 10 µM
5 | COc1cc2c(cc1OC)C(C(=O)NS(=O)(=O)c1cccc3ccccc13)CCC2 (centres unmarked) [II-53] | 50 to 150% | 3 to 10 µM | +++ (≥350) | 3 to 10 µM
6 | CCC1(C(=O)NS(=O)(=O)c2ccccc2OC)CCc2c(Cl)cccc21 (centres unmarked) [II-55] | < 50% | ≥ 10 µM | + (<150) | ≥ 10 µM
7 | CCC1(C(=O)NS(=O)(=O)c2ccccc2OC(F)(F)F)CCc2c(Cl)cccc21 (centres unmarked) [II-60] | < 50% | ≥ 10 µM | + (<150) | ≥ 10 µM
8 | CCC1(C(=O)NS(=O)(=O)c2ccccc2OC(F)F)CCc2c(Cl)cccc21 (centres unmarked) [II-61] | < 50% | ≥ 10 µM | + (<150) | ≥ 10 µM
9 | CCC1(C(=O)NS(=O)(=O)c2cc(C)ccc2C)CCc2c(Cl)cccc21 (centres unmarked) [II-62] | < 50% | ≥ 10 µM | + (<150) | ≥ 10 µM
10 | CCC1(C(=O)NS(=O)(=O)c2ccc3ccccc3c2)CCc2c(Cl)cccc21 (centres unmarked) [II-65] | < 50% | 3 to 10 µM | ++ (≥150 and <350) | 3 to 10 µM
11 | CCC1(C(=O)NS(=O)(=O)c2cccc3nsnc23)CCc2c(Cl)cccc21 (centres unmarked) [II-67] | < 50% | ≥ 10 µM | + (<150) | ≥ 10 µM

More lines, now with the values ahead:

Row | Emax (F508delCFTR [1]) | EC50 (F508delCFTR [1]) | Maximum % activity (with co-corrector) (F508delCFTR [2]) | EC50 (F508delCFTR [2]) | Compound
12 | 50 to 150% | 3 to 10 µM | +++ (≥350) | 3 to 10 µM | COc1ccc2c(c1)CC[C@@]2(C)C(=O)NS(=O)(=O)c1cccc2ccccc12 [II-44]
13 | ≥ 150% | 3 to 10 µM | +++ (≥350) | 3 to 10 µM | COc1ccc2c(c1)CC[C@]2(C)C(=O)NS(=O)(=O)c1cccc2ccccc12 [II-45]
14 | 50 to 150% | 3 to 10 µM | +++ (≥350) | 3 to 10 µM | COc1cccc2c1CC[C@]2(C)C(=O)NS(=O)(=O)c1cccc2ccccc12 [II-46]
15 | 50 to 150% | 3 to 10 µM | +++ (≥350) | 3 to 10 µM | COc1cccc2c1CC(C(=O)NS(=O)(=O)c1cccc3ccccc13)C2 (centres unmarked) [II-48]
16 | < 50% | < 3 µM | ++ (≥150 and <350) | < 3 µM | CCC1(C(=O)NS(=O)(=O)c2ccccc2Cl)CCc2c(Cl)cccc21 (centres unmarked) [II-54]
17 | < 50% | < 3 µM | ++ (≥150 and <350) | < 3 µM | CCC1(C(=O)NS(=O)(=O)c2cc(C)ccc2C(C)C)CCc2c(Cl)cccc21 (centres unmarked) [II-56]
18 | < 50% | < 3 µM | ++ (≥150 and <350) | < 3 µM | CCC1(C(=O)NS(=O)(=O)c2cccc(Cl)c2COC)CCc2c(Cl)cccc21 (centres unmarked) [II-57]
19 | < 50% | < 3 µM | ++ (≥150 and <350) | < 3 µM | CCC1(C(=O)NS(=O)(=O)c2ccccc2F)CCc2c(Cl)cccc21 (centres unmarked) [II-58]
20 | < 50% | < 3 µM | ++ (≥150 and <350) | < 3 µM | CCC1(C(=O)NS(=O)(=O)c2ccccc2Oc2ccccc2)CCc2c(Cl)cccc21 (centres unmarked) [II-59]
21 | < 50% | < 3 µM | ++ (≥150 and <350) | < 3 µM | CCC1(C(=O)NS(=O)(=O)c2ccccc2OCCOC)CCc2c(Cl)cccc21 (centres unmarked) [II-63]
22 | < 50% | < 3 µM | ++ (≥150 and <350) | < 3 µM | CCC1(C(=O)NS(=O)(=O)c2ccccc2-c2ccccc2)CCc2c(Cl)cccc21 (centres unmarked) [II-64]
23 | 50 to 150% | < 3 µM | ++ (≥150 and <350) | < 3 µM | CCC1(C(=O)NS(=O)(=O)c2ccccc2)CCc2c(Cl)cccc21 (centres unmarked) [II-66]
